Among the data in US9522920B2, “Bromodomain inhibitors and uses thereof” (Constellation Pharmaceuticals, Inc., priority 2010, dated 2016) are IC50 values, retold here.

Where two headings read alike, the source gives them in different places.

One test has as its system IL-6 secretion. The experiment in a line: Cell-based IL-6 quantification assay (ELISA, Mesoscale) in LPS-stimulated THP-1 cells. Particulars: read-out: IL6. As for the experimental part:
100,000 THP-1 cells were seeded in RPMI1640-10% FBS in 96-well plates. LPS (E. Coli Invitrogen) in RPMI-10% FBS at a final concentration of 4 μg/mL was added to the wells and the cells are then incubated in the presence of various concentrations of compounds for 16 h. Plates are spun ([…], 5 min), an aliquot of 25 uL supernatant is transferred in to an ELISA plate (Mesoscale technology, MSD) and the detection of IL-6 is performed using manufacturer's instructions. The amount of cells in each well is assessed using CellTiter-Glo® (Promega). The ratio of ELISA value/CellTiter-Glo value is used to calculate the percent of inhibition of IL-6 secretion.

Another test addresses T1, BRD4(BD1) (Homo sapiens, UniProt O60885).
T1 construct: His; made in house
The experiment in a line: BRD4 AlphaLisa binding assay (Alphascreen). As to the method:
Specifically, in a 384 well ProxiPlate BRD4(BD1) (30 nM final) was combined with peptide (200 nM final) in 40 mM HEPES (pH 7.0), 40 mM NaCl, 1 mM DTT, 0.01% (w/v) BSA, and 0.008% (w/v) Brij-35 either in the presence of DMSO (final 1.2% DMSO) or compound dilution series in DMSO. After 20 minute incubation at room temperature Alpha streptavidin donor beads and AlphaLisa anti-Flag acceptor beads were added to a final concentration of 10 ug/mL each. After three hours equilibration plates were read on an Envision instrument and IC50s calculated using a four parameter non-linear curve fit.

The test system of test [1] is MYC mRNA. The experiment in a line: cMyc RNA quantification assay (QuantiGene) in MV4:11 cells. It counts as cell-based. Particulars: read-out: MYC-MV411. As for the experimental part:
(§1) MV4:11 (AML) or Raji (Burkitt's lymphoma) cells were seeded in a 96-well plate and incubated in the presence of various concentrations of compounds for 4 h. Relative mRNA levels were quantitated by using QuantiGene 2.0 assay (Affymetrix) according to the manufacturer's recommendation. Signals were detected by using an Envision plate reader (Perkin-Elmer). Biological duplicates were averaged and normalized to vehicle (DMSO) control to calculate percent MYC mRNA levels.

The subject of test [2] is MYC mRNA. The experiment in a line: cMyc RNA quantification assay (QuantiGene) in Raji cells. It counts as cell-based. Particulars: Homo sapiens, 4 h. As for the experimental part:
as §1

The mark [3] stands for this setting: Homo sapiens, THP-1, 16 h, Table 14, THP-1 cells, LPS, 16 h.
Where [4] appears, read: Table 14, BRD4 AlphaLisa Binding Assay, read-out: Alpha screen.
Setting [5] is: Homo sapiens, MV4-11, 4 h, Table 14, MV4:11 cells.
Setting [6] is: Homo sapiens, THP-1, 16 h, Table 7, THP-1 cells, LPS 4 μg/mL, 16 h, normalised to CellTiter-Glo.
Setting [7] is: Table 6, BRD4(BD1) 30 nM, H4-tetraacetyl peptide 200 nM, read-out: BRD4 Alphascreen IC50.
Where [8] appears, read: Table 7, Raji (Burkitt's lymphoma) cells.

As to `Cc1noc2c1-c1ccccc1C(c1ccc(Cl)cc1)=N[C@H]2CC(N)C(F)(F)F` (mixture of isomers) [Compound 232, Mixture of (2S)-3-((4S)-6-(4-chlorophenyl)-1-methyl-4H-benzo[c]isoxazolo[4,5-e]azepin-4-yl)-1,1,1-trifluoropropan-2-amine and (2R)-3-((4S)-6-(4-chlorophenyl)-1-methyl-4H-benzo[c]isoxazolo[4,5-e]azepin-4-yl)-1,1,1-trifluoropropan-2-amine], the IC50 in the test on IL-6 secretion (setting [3]), on BRD4(BD1) (setting [4]) and in the test with MYC mRNA [1] (setting [5]) was over 1000 nM each time.
For the compound `CC(=O)NC(C[C@@H]1N=C(c2ccc(Cl)cc2)c2ccccc2-c2c(C)noc21)C(F)(F)F` (mixture of isomers) [Compound 244, Mixture of N-((2S)-3-((4S)-6-(4-chlorophenyl)-1-methyl-4H-benzo[c]isoxazolo[4,5-e]azepin-4-yl)-1,1,1-trifluoropropan-2-yl)acetamide and N-((2R)-3-((4S)-6-(4-chlorophenyl)-1-methyl-4H-benzo[c]isoxazolo[4,5-e]azepin-4-yl)-1,1,1-trifluoropropan-2-yl)acetamide], the IC50 with IL-6 secretion (setting [3]), on BRD4(BD1) (setting [4]) and with MYC mRNA [1] (setting [5]) was over 1000 nM throughout.
As for `CCOC(=O)NC1N=C(c2ccc(Cl)cc2)c2ccccc2-c2c(C)noc21` (single isomer, unassigned) [Compound 253, Ethyl (6-(4-chlorophenyl)-1-methyl-4H-benzo[c]isoxazolo[4,5-e]azepin-4-yl)carbamate], the IC50 with IL-6 secretion (setting [3]), at BRD4(BD1) (setting [4]) and in the test on MYC mRNA [1] (setting [5]) was under 500 nM in each case.
Turning to `CCOC(=O)NC1N=C(c2ccc(Cl)cc2)c2ccccc2-c2c(C)noc21` (single isomer, unassigned) [Compound 254, Ethyl (6-(4-chlorophenyl)-1-methyl-4H-benzo[c]isoxazolo[4,5-e]azepin-4-yl)carbamate], the IC50 is over 1000 nM with IL-6 secretion (Table 14, THP-1 cells, LPS, 16 h); 500 to 1000 nM at BRD4(BD1) (setting [4]); over 1000 nM in the test with MYC mRNA [1] (Table 14, MV4:11 cells, 4 h).
On to `CCNC(=O)C[C@@H]1N=C(c2ccc(Cl)cc2)c2ccccc2-c2c1noc2C` [Compound 163, 2-((4S)-6-(4-chlorophenyl)-1-methyl-4H-benzo[c]isoxazolo[4,3-e]azepin-4-yl)-N-ethylacetamide], for which the IC50 is under 500 nM in the test on IL-6 secretion (setting [6]), under 500 nM on BRD4(BD1) (setting [7]) and over 1000 nM with MYC mRNA [2] (setting [8]).
`Cc1noc2c1-c1ccnc(N)c1C(c1ccc(Cl)cc1)=NC2` [Compound 172, 6-(4-Chlorophenyl)-1-methyl-4H-isoxazolo[5,4-c]pyrido[4,3-e]azepin-7-amine]: the IC50 with IL-6 secretion (Homo sapiens, THP-1, 16 h) was under 500 nM; on BRD4(BD1) (setting [7]) it was under 500 nM; with MYC mRNA [2] (setting [8]) it was 500 to 1000 nM.
`CNc1nccc2c1C(c1ccc(Cl)cc1)=NCc1onc(C)c1-2` [Compound 173, 6-(4-Chlorophenyl)-N,1-dimethyl-4H-isoxazolo[5,4-c]pyrido[4,3-e]azepin-7-amine]: the IC50 in the test on IL-6 secretion (setting [6]), on BRD4(BD1) (setting [7]) and in the test with MYC mRNA [2] (setting [8]) was under 500 nM in each case.
For `CCNc1nccc2c1C(c1ccc(Cl)cc1)=NCc1onc(C)c1-2` [Compound 174, 6-(4-Chlorophenyl)-N-ethyl-1-methyl-4H-isoxazolo[5,4-c]pyrido[4,3-e]azepin-7-amine], the IC50 in the test on IL-6 secretion (setting [6]) is under 500 nM; at BRD4(BD1) (setting [7]), under 500 nM; in the test on MYC mRNA [2] (setting [8]), 500 to 1000 nM.
As to `Cc1noc2c1-c1ccnc(N(C)C)c1C(c1ccc(Cl)cc1)=NC2` [Compound 175, 6-(4-Chlorophenyl)-N,N,1-trimethyl-4H-isoxazolo[5,4-c]pyrido[4,3-e]azepin-7-amine], the IC50 with IL-6 secretion (setting [6]) was 500 to 1000 nM; on BRD4(BD1) (setting [7]) it was under 500 nM; in the test with MYC mRNA [2] (setting [8]), over 1000 nM.
In the case of `Cc1noc2c1-c1sc(C)c(C)c1C(Oc1ccccc1)=N[C@H]2CC(N)=O` [Compound 186, 2-((6S)-2,3,9-trimethyl-4-phenoxy-6H-isoxazolo[5,4-c]thieno[2,3-e]azepin-6-yl)acetamide], the IC50 is 500 to 1000 nM with IL-6 secretion (Homo sapiens, THP-1, 16 h); 500 to 1000 nM on BRD4(BD1) (setting [7]); over 1000 nM in the test on MYC mRNA [2] (setting [8]).
As for `Cc1noc2c1-c1sc(C)c(C)c1C(c1ccc(Cl)cc1)=N[C@H]2Cc1ncc[nH]1` [Compound 187, (6S)-6-((1H-imidazol-2-yl)methyl)-4-(4-chlorophenyl)-2,3,9-trimethyl-6H-isoxazolo[5,4-c]thieno[2,3-e]azepine], the IC50 with IL-6 secretion (Homo sapiens, THP-1, 16 h) is over 1000 nM; on BRD4(BD1) (setting [7]), under 500 nM; in the test with MYC mRNA [2] (setting [8]), over 1000 nM.
For the compound `Cc1noc2c1-c1sc(C)c(C)c1C(c1ccc(Cl)cc1)=N[C@H]2Cc1nccs1` [Compound 188, (6S)-4-(4-chlorophenyl)-2,3,9-trimethyl-6-(thiazol-2-ylmethyl)-6H-isoxazolo[5,4-c]thieno[2,3-e]azepine], the results for the IC50 with IL-6 secretion (setting [6]), at BRD4(BD1) (setting [7]) and with MYC mRNA [2] (setting [8]) were under 500 nM, under 500 nM and over 1000 nM, respectively.
As for `Cc1noc2c1-c1ccccc1C(c1ccc(F)cn1)=N[C@H]2CC(N)=O` [Compound 196], the IC50 is 500 to 1000 nM with IL-6 secretion (setting [3]); over 1000 nM on BRD4(BD1) (setting [4]); over 1000 nM with MYC mRNA [2] (Table 14, Raji cells).
As for `Cc1noc2c1-c1ccc(OC(F)(F)F)cc1C(c1ccc(Cl)cc1)=N[C@H]2CC(N)=O` [Compound 197], the IC50 was under 500 nM in the test with IL-6 secretion (setting [3]); under 500 nM at BRD4(BD1) (setting [4]); under 500 nM in the test with MYC mRNA [2] (Table 14, Raji cells).
Turning to `Cc1noc2c1-c1sc(C)c(C)c1C(c1cscn1)=N[C@H]2CC(N)=O` [Compound 198], the IC50 with IL-6 secretion (setting [3]) is under 500 nM; on BRD4(BD1) (setting [4]) it was under 500 nM; in the test on MYC mRNA [2] (Table 14, Raji cells) it was 500 to 1000 nM.
For the compound `Cc1noc2c1-c1ccccc1C(c1ccc(Cl)cc1)=N[C@H]2CC(=O)NCCF` [Compound 199], the IC50 in the test on IL-6 secretion (setting [3]) was under 500 nM; on BRD4(BD1) (setting [4]), under 500 nM; with MYC mRNA [2] (Table 14, Raji cells), under 500 nM.
As for `Cc1noc2c1-c1ccc(Cl)cc1C(c1ccc(C(F)(F)F)cc1)=N[C@H]2CC(=O)O` [Compound 200], the IC50 was over 1000 nM in the test with IL-6 secretion (setting [3]); over 1000 nM at BRD4(BD1) (setting [4]); over 1000 nM in the test with MYC mRNA [2] (Table 14, Raji cells).
Turning to `Cc1noc2c1-c1ccc(Cl)cc1C(c1ccc(C(F)(F)F)cc1)=N[C@H]2CC(N)=O` [Compound 201], the IC50 with IL-6 secretion (setting [3]) was under 500 nM; at BRD4(BD1) (setting [4]), under 500 nM; with MYC mRNA [2] (Table 14, Raji cells) it was 500 to 1000 nM.
`Cc1noc2c1-c1ccccc1C(c1ccc(Cl)cc1)=N[C@H]2CC(=O)NC(C)(C)C` [Compound 205]: the IC50 with IL-6 secretion (setting [3]) is under 500 nM; at BRD4(BD1) (setting [4]) it was under 500 nM; in the test with MYC mRNA [2] (Table 14, Raji cells) it was over 1000 nM.
In the case of `Cc1noc2c1-c1ccc(Cl)cc1C(c1ccc(F)cc1)=N[C@H]2CC(N)=O` [Compound 211], the IC50 with IL-6 secretion (setting [3]) was under 500 nM; at BRD4(BD1) (setting [4]), under 500 nM; in the test with MYC mRNA [1] (setting [5]), 500 to 1000 nM.
As to `Cc1noc2c1-c1ccc(F)cc1C(c1ccc(C#N)cc1)=N[C@H]2CC(N)=O` [Compound 212], the IC50 in the test on IL-6 secretion (setting [3]), at BRD4(BD1) (setting [4]) and in the test on MYC mRNA [1] (setting [5]) was under 500 nM in each case.
For the compound `Cc1noc2c1-c1ccc(-c3ccc(N)nc3)cc1C(c1ccc(Cl)cc1)=N[C@H]2CC(N)=O` [Compound 213], the IC50 in the test with IL-6 secretion (setting [3]), on BRD4(BD1) (setting [4]) and in the test with MYC mRNA [1] (setting [5]) was under 500 nM each time.
Take `Cc1noc2c1-c1ccccc1C(c1ccc(Cl)cc1)=N[C@H]2CC(=O)NCCO` [Compound 214]: the IC50 with IL-6 secretion (setting [3]), at BRD4(BD1) (setting [4]) and in the test with MYC mRNA [1] (setting [5]) was under 500 nM in each case.
For the compound `Cc1noc2c1-c1ccccc1C(c1ccc(Cl)cc1)=NC2C#N` (stereo not shown) [Compound 215, 6-(4-chlorophenyl)-1-methyl-4H-benzo[c]isoxazolo[4,5-e]azepine-4-carbonitrile], the IC50 with IL-6 secretion (setting [3]), on BRD4(BD1) (setting [4]) and in the test with MYC mRNA [1] (setting [5]) was over 1000 nM in each case.
Take `Cc1noc2c1-c1ccc(Cl)cc1C(c1ccc(F)cc1)=NC21CC1` [Compound 250, 8-Chloro-6-(4-fluorophenyl)-1-methylspiro[benzo[c]isoxazolo[4,5-e]azepine-4,1′-cyclopropane]]: the IC50 with IL-6 secretion (setting [3]) and in the test with MYC mRNA [1] (setting [5]) was over 1000 nM in each case.
On to `Cc1noc2c1-c1ccc(-c3ccc(N)nc3)cc1C(c1ccc(F)cc1)=NC21CC1` [Compound 251, 5-(6-(4-Fluorophenyl)-1-methylspiro[benzo[c]isoxazolo[4,5-e]azepine-4,1′-cyclopropan]-8-yl)pyridin-2-amine], for which the IC50 with IL-6 secretion (setting [3]) and with MYC mRNA [1] (setting [5]) was under 500 nM each time.
